From patent US10526579B2, “Podocyte cultures and uses thereof” (RUSH UNIVERSITY MEDICAL CENTER, priority 2013, dated 2020)

Key:
cultured podocytes [1] = assay: High-content F-actin stress fiber assay in cultured differentiated podocytes (phalloidin stain); format: cell-based, murine; conditions: 48 h at 37° C., 96-well plates
Protocol: (§1) A dose-response curve showing the effects of increasing concentration of podocyte injuring drug puromycin aminonucleoside (PAN) on various cellular parameters, including the intensity and the number of actin fibers, in cultured podocytes. Differentiated podocytes were cultured in 96-well multiwell plates. Cells were either kept in normal cell culture media or were treated with increasing concentration of PAN for 48 h at 37° C. Subsequently, the cells were fixed with paraformaldehyde and the filamentous actin (F-actin) fibers stained using Alexa Fluor 594-labeled phalloidin. Cells were imaged using PerkinElmer OPERA High-content screening microscope and the images were analyzed using PerkinElmer Columbus analysis system to count F-actin fibers per cell in each well of the multiwell plate. FIGS. 4A and 4B show representative images of untreated (A) and PAN-treated (B) podocytes. […] These two parameters also gave a reproducible IC50 value for PAN as an in vitro podocyte damaging agent. Each data point represents average F-actin fiber count per cell (from approximately 500-2000 cells/well) from a single well.
FIG. 5. […] Cells were imaged using PerkinElmer OPERA High-content screening microscope and the images were analyzed using PerkinElmer Columbus analysis system to count F-actin fibers per cell in each well of the multiwell plate. […]

cultured podocytes [2] = assay: High-content focal adhesion assay in cultured differentiated podocytes (anti-paxillin stain); format: cell-based, murine; conditions: 48 h at 37° C., 96-well plates
Protocol: as §1, with “FIG. 6. […]” for “A dose-response curve showing the effects of increasing concentration of podocyte injuring drug puromycin aminonucleoside (PAN) on various cellular parameters, including the intensity and the number of actin fibers, in cultured podocytes.”, “focal adhesions were” for “filamentous actin (F-actin) fibers”, “an anti-paxillin antibody.” for “Alexa Fluor 594-labeled phalloidin.”, “6A” for “4A”, “6B” for “4B”, “average” for “average F-actin fiber”
FIG. 7. Focal adhesion protection with Mizouribine. […] Cells were imaged using PerkinElmer OPERA High-content screening microscope and the images were analyzed using PerkinElmer Columbus analysis system to count F-actin fibers per cell in each well of the multiwell plate. […] The method allowed quantitative assessment of podocyte protection in a dose-response fashion using these parameters based on the podocyte focal adhesions when treated with the compounds PAN and mizouribine. […]

[3] = increasing concentration of PAN
[4] = co-treatment with PAN and increasing concentration of mizouribine

Row | Structure (SMILES) | effect on intensity and number of actin fibers (relative spot to background intensity; whole cell fibers - number of objects) (cultured podocytes [1]; [3]) | effect on number and intensity of focal adhesions (relative spot to background intensity; FA - number of objects) (cultured podocytes [2]; [3]) | protection of podocyte actin fibers from PAN damage (cultured podocytes [1]; [4]) | protection of podocyte focal adhesions from PAN damage (cultured podocytes [2]; [4])
1 | CN(C)c1ncnc2c1ncn2[C@@H]1O[C@H](CO)[C@@H](N)[C@H]1O [PAN, puromycin aminonucleoside] | podocyte damage in a dose-response fashion | leads to reduced focal adhesions | – | –
2 | NC(=O)c1ncn([C@@H]2O[C@H](CO)[C@@H](O)[C@H]2O)c1O [Mizouribine, mizouribine] | – | – | dose-dependently prevents podocyte damage | protects the focal adhesions from PAN damage
